The source of these data is paper PMC5626781, “A Potent Tartrate Resistant Acid Phosphatase Inhibitor to Study the Function of TRAP in Alveolar Macrophages” (Scientific Reports, 2017).

In test [1] the target is T1, TRAP activity in lysates of murine MPI alveolar macrophages (Mus musculus, UniProt Q05117).
T1 construct: endogenous in cells; host or cells: murine MPI alveolar-like macrophages
T1 sequence (Q05117 23-327): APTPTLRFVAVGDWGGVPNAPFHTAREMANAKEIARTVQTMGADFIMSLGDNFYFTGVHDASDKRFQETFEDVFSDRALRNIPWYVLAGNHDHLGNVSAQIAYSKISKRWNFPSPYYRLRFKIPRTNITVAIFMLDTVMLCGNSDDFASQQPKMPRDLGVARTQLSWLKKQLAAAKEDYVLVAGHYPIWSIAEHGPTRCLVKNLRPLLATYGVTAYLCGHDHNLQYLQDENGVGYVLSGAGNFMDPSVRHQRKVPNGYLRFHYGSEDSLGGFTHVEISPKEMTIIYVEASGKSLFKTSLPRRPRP
Description: TRAP activity assay on MPI alveolar macrophage lysates. In kind it is biochemical. The conditions noted are these: cell lysates of murine MPI alveolar macrophages; mean ± standard error, n = 3. On the procedure: Mouse alveolar macrophage lysates were obtained by resuspending 500.000 MPI macrophages in 300 μl acetate buffer. Human lung lysates from COPD patients were used to test the inhibitor on human TRAP present in lung tissue. Lysates from in total 18 COPD patients were pooled (see Supplementary Table S3 for patient characteristics).
AubipyOMe was tested in the range 0–40 μM with MPI cell lysates or pooled lung tissue lysates from COPD patients using a TRAP activity assay. Lysates were incubated at 37 °C for 30 min in the presence of PNPP solution (1:1 ratio). 1M NaOH was added to stop the reaction and absorption was measured at 410 nm with 490 nm as a reference value.
The inhibitory effects of gold compounds were calculated as the ratio of absorbance between the treated and untreated wells. The IC50 values were calculated using nonlinear curve fitting with a variable slope in Graphpad Prism 6 (Graphpad Software, la Jolla, USA). An average IC50 of three independent experiments was calculated.
Identification of TRAP inhibitors […]
Inhibitor dilutions were prepared in acetate buffer from freshly prepared stock solutions (10 mM in DMSO). […] To stop the reaction, 1M NaOH was added and absorption at 410 nm, with 490 nm as a reference value, was measured using a spectrophotometer. […]
The inhibitory effects of gold compounds were calculated as the ratio of absorbance between the treated and untreated wells. […]

A further test has as its system RAW264.7 macrophages. Description: Transwell migration, collagen-coated membrane. Format: cell-based, mouse. The note with it: AubipyOMe 80 nM, with or without RANKL 200 ng/ml. On the procedure: Migration of RAW264.7 macrophages was assessed using a transwell-culturing system with inserts (Sigma-Aldrich) coated with osteopontin (10 μg/ml, R&D). Bovine collagen-coated inserts (10 μg/ml, Advanced Biometrix, Carlsbad, USA) were used as matrix control. Cells were incubated with or without RANKL (200 ng/ml) for 72 hours to induce TRAP activity or not[75], in the presence or absence of AubipyOMe (80 nM) in quadruplicate. The previously described TRAP inhibitor 5-PNA (100 μM) was used as selective positive control for TRAP inhibition[15],[23]. The number of cells migrated to the lower well, including dead cells, was calculated relative to control cells and individual experiments were done at least six times. […]
Transwell experiment to assess macrophage migration
Migration of RAW264.7 macrophages was assessed using a transwell-culturing system with inserts (Sigma-Aldrich) coated with osteopontin (10 µg/ml, R&D). Bovine collagen-coated inserts (Advanced Biometrix, Carlsbad, USA) were used as a matrix control. […] The number of cells migrated to the lower well, including dead cells, was calculated relative to control cells and individual experiments were done at least six times. […]

The test system of another test is other proteins. The arrangement: method as in PMID 20162197, PMID 21370912. The conditions noted are these: compared to TRAP isoforms; cited from earlier work.

The IC50 is the midpoint of a concentration-inhibition curve. Low readings indicate greater potency, high ones weaker potency. `COc1ccnc(-c2cc(OC)ccn2)c1.F[P-](F)(F)(F)(F)F.[Cl][Au+][Cl]` [AubipyOMe, [Au(4,4′-dimethoxy-2,2′-bipyridine)Cl2][PF6]] yielded an IC50 in test [1] of 1700 ± 400 nM. In addition, the “migration through collagen-coated membrane” value in the test with RAW264.7 macrophages is reported as “no effect”. In addition, the “inhibitory effects on other proteins” value in the test with other proteins was “extremely moderate”.
